Data as given in patent US8624034B2, “Fluoro-pyridinone derivatives useful as antibacterial agents” (Pfizer Inc., priority 2011, dated 2014).
Converted amounts (≈) assume the structure as drawn.

Experiments:
[1] = molecular target: T1, Pseudomonas aeruginosa LpxC enzyme (Pseudomonas aeruginosa, UniProt P47205); assay: IC50 assay, LpxC enzyme from P. aeruginosa (PA LpxC enzyme IC50); type: biochemical; settings: Table 2; LpxC enzyme 0.1 nM, 25° C., 1 hour; read-out: PA:IC50
T1 construct: made in house; host or cells: E. coli
T1 sequence (P47205 1-303): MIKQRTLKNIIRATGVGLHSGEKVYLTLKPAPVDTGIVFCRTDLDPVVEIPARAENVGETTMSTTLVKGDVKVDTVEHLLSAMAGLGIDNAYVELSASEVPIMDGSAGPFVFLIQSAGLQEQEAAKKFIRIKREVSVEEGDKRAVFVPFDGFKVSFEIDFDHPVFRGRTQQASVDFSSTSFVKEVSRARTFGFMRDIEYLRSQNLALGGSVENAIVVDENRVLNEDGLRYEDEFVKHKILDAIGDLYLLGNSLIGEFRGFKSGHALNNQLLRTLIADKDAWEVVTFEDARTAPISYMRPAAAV
In short: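 The LpxC reaction ran 1 hour and was stopped with HCl. Substrate-to-product conversion was measured by RapidFire mass spectrometry, and IC50 values were calculated from percent conversion relative to a no-enzyme control.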

[2] = tested on: Acinetobacter baumannii/haemolyticus, multidrug-resistant clinical isolate (AB-3167); assay: MIC determination, AB-3167; type: cell-based; settings: Table 2, lower of duplicate values
In short: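 Broth dilution MIC per CLSI M7-A8, 2-fold drug series, overnight incubation, lowest concentration visibly inhibiting growth against drug-free control. Run in duplicate, lower value reported; duplicates differing >2-fold repeated; QC strains and reference compounds required in range.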

[3] = tested on: Escherichia coli EC-1: VOGEL, mouse virulent; assay: MIC determination, EC-1; type: cell-based; settings: Escherichia coli, read-out: EC-1 (MIC), Table 2, lower of duplicate values
In short: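 MIC against mouse-virulent E. coli EC-1 (VOGEL) was determined by CLSI M7-A8 broth dilution with 2-fold drug increments and overnight incubation. The MIC is the lowest concentration with no visible growth versus drug-free control. Tests were run in duplicate and the lower value reported if within 2-fold, with QC organisms and reference drugs in each run.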

[4] = tested on: Pseudomonas aeruginosa UI-18: wild-type (PA-7); assay: MIC determination, PA-7; type: cell-based; settings: Table 2, lower of duplicate values
Protocol: The in vitro antibacterial activity of compounds described in the Examples was evaluated by minimum inhibitory concentration (MIC) testing according to Clinical and Laboratory Standards Institute (CLSI). See: Clinical and Laboratory Standards Institute. Methods for Dilution Antimicrobial Susceptibility Tests for Bacteria that Grow Aerobically; Approved Standard-Eighth Edition. CLSI document M7-A8 [ISBN 1-56238-689-1]. Clinical and Laboratory Standards Institute, 940 West Valley Road, Suite 1400, Wayne, Pa. 19087-1898 USA, 2006; also Clinical and Laboratory Standards Institute. Performance Standards for Antimicrobial Susceptibility Testing; Twentieth Informational Supplement. CLSI document M100-S20 [ISBN 1-56238-716-2]. Clinical and Laboratory Standards Institute.
The MIC determination is a standard laboratory method for evaluating the antibacterial activity of a compound. The MIC represents the lowest drug concentration that inhibits visible growth of bacteria following overnight incubation. […] Typically, the drug concentration range is broken down into 2-fold increments (e.g. 0.06 μg/mL, 0.12 μg/mL. 0.25 μg/mL, 0.50 μg/mL, 1.0 μg/mL, etc.) and the various drug concentrations are all individually incubated overnight with approximately the same number of bacteria. The MIC is then determined by visually inspecting the drug effect at each concentration, and identifying the lowest drug concentration that has inhibited bacterial growth as compared to the drug free control. Typically, bacteria continue to grow at drug concentrations lower than the MIC and don't grow at concentrations at and above the MIC.
The MIC values described in Table 2 and 3 below were derived from assays wherein each test compound was evaluated in duplicate. In cases where the duplicate values varied by 0-2-fold, the lower of the two values was reported below. Generally speaking, if the duplicate values varied by more than 2-fold, the assay was considered non-valid and was repeated until the variation between duplicate runs was ≦2-fold. In line with the CLSI guidelines referred to above, both control organisms and reference compounds were utilized in each MIC assay to provide proper quality control. MIC values generated with these control organisms and reference compounds were required to fall within a defined range for the assay to be considered valid and be included herein. Those skilled in the art will recognize that MIC values can and do vary from experiment to experiment. Generally speaking, it should be recognized that MIC values often vary +/−2-fold from experiment to experiment. While a single MIC is reported for each compound and each microorganism, the reader should not conclude that each compound was only tested once. Several of the compounds were subjected to multiple tests. The data reported in Tables 2 and 3 is reflective of the compounds relative activity and different MICs may have been generated on these occasions in line with the guidelines described above.
The following bacterial strains were used in these MIC determinations:
1) Pseudomonas aeruginosa UI-18: Wild-type, labeled as PA-7 in Tables 2 and 3;

Compound	IC50 [1] [nM]	MIC [2] [mg/L]	MIC [3] [mg/L]	MIC [4] [mg/L]
COc1cccc(-c2cc(=O)n(CC[C@](C)(C(=O)NO)S(C)(=O)=O)cc2F)c1F [Example 17, (2R)-4-[5-fluoro-4-(2-fluoro-3-methoxyphenyl)-2-oxopyridin-1(2H)-yl]-N-hydroxy-2-methyl-2-(methylsulfonyl)butanamide]	0.5	> 64	0.5 (≈ 1.16 µM)	1 (≈ 2.32 µM)
C[C@@](CCn1cc(F)c(-c2ccc(OC[C@H]3CC[C@H](O)CC3)cc2)cc1=O)(C(=O)NO)S(C)(=O)=O [Example 18, (2R)-4-[5-Fluoro-4-{4-[(trans-4-hydroxycyclohexyl)methoxy]phenyl}-2-oxopyridin-1(2H)-yl]-N-hydroxy-2-methyl-2-(methylsulfonyl)butanamide]	0.463	> 64	0.125 (≈ 0.245 µM)	1 (≈ 1.96 µM)
COc1ccc(-c2cc(=O)n(CC[C@](C)(C(=O)NO)S(C)(=O)=O)cc2F)cc1F [Example 19, (2R)-4-[5-Fluoro-4-(3-fluoro-4-methoxyphenyl)-2-oxopyridin-1(2H)-yl]-N-hydroxy-2-methyl-2-(methylsulfonyl)butanamide]	0.879	> 64	2 (≈ 4.65 µM)	1 (≈ 2.32 µM)
C[C@@](CCn1cc(F)c(-c2ccc(-c3ncccn3)cc2)cc1=O)(C(=O)NO)S(C)(=O)=O [Example 20, (2R)-4-[5-Fluoro-2-oxo-4-(4-pyrimidin-2-ylphenyl)pyridin-1(2H)-yl]-N-hydroxy-2-methyl-2-(methylsulfonyl)butanamide]	0.945	> 64	0.125 (≈ 0.271 µM)	1 (≈ 2.17 µM)
COc1cnc(-c2ccc(-c3cc(=O)n(CC[C@](C)(C(=O)NO)S(C)(=O)=O)cc3F)cc2)nc1 [Example 21, (2R)-4-{5-Fluoro-4-[4-(5-methoxypyrimidin-2-yl)phenyl]-2-oxopyridin-1(2H)-yl}-N-hydroxy-2-methyl-2-(methylsulfonyl)butanamide]	0.436	> 64	0.125 (≈ 0.255 µM)	1 (≈ 2.04 µM)
COc1cnn(-c2ccc(-c3cc(=O)n(CC[C@](C)(C(=O)NO)S(C)(=O)=O)cc3F)cc2)n1 [Example 22, (2R)-4-{5-Fluoro-4-[4-(4-methoxy-2H-1,2,3-triazol-2-yl)phenyl]-2-oxopyridin-1(2H)-yl}-N-hydroxy-2-methyl-2-(methylsulfonyl)butanamide]	0.181	> 64	≤ 0.06	0.5 (≈ 1.04 µM)
Cc1cnn(-c2ccc(-c3cc(=O)n(CC[C@](C)(C(=O)NO)S(C)(=O)=O)cc3F)cc2)n1 [Example 23, (2R)-4-{5-Fluoro-4-[4-(4-methyl-2H-1,2,3-triazol-2-yl)phenyl]-2-oxopyridin-1(2H)-yl}-N-hydroxy-2-methyl-2-(methylsulfonyl)butanamide]	0.287	> 64	0.06 (≈ 0.129 µM)	0.5 (≈ 1.08 µM)
C[C@@](CCn1cc(F)c(-c2ccc3nccnc3c2)cc1=O)(C(=O)NO)S(C)(=O)=O [Example 24, (2R)-4-(5-Fluoro-2-oxo-4-quinoxalin-6-ylpyridin-1(2H)-yl)-N-hydroxy-2-methyl-2-(methylsulfonyl)butanamide]	1.23	> 64	4 (≈ 9.21 µM)	4 (≈ 9.21 µM)
COc1cccc(-c2cc(=O)n(CC[C@](C)(C(=O)NO)S(C)(=O)=O)cc2F)c1 [Example 25, (2R)-4-[5-Fluoro-4-(3-methoxyphenyl)-2-oxopyridin-1(2H)-yl]-N-hydroxy-2-methyl-2-(methylsulfonyl)butanamide]	0.412	> 64	1 (≈ 2.42 µM)	2 (≈ 4.85 µM)
C[C@@](CCn1cc(F)c(-c2ccc(-n3nccn3)cc2)cc1=O)(C(=O)NO)S(C)(=O)=O [Example 26, (2R)-4-{5-Fluoro-2-oxo-4-[4-(2H-1,2,3-triazol-2-yl)phenyl]pyridin-1(2H)-yl}-N-hydroxy-2-methyl-2-(methylsulfonyl)butanamide]	0.0743	> 64	≤ 0.06	0.25 (≈ 0.556 µM)
COc1ccc(-c2cc(=O)n(CC[C@](C)(C(=O)NO)S(C)(=O)=O)cc2F)c(F)c1 [Example 27, (2R)-4-[5-Fluoro-4-(2-fluoro-4-methoxyphenyl)-2-oxopyridin-1(2H)-yl]-N-hydroxy-2-methyl-2-(methylsulfonyl)butanamide]	0.0498	> 64	0.25 (≈ 0.581 µM)	0.5 (≈ 1.16 µM)
COc1ccc(-c2cc(=O)n(CC[C@](C)(C(=O)NO)S(C)(=O)=O)cc2F)cc1 [Example 28, (2R)-4-[5-Fluoro-4-(4-methoxyphenyl)-2-oxopyridin-1(2H)-yl]-N-hydroxy-2-methyl-2-(methylsulfonyl)butanamide]	0.564	> 64	1 (≈ 2.42 µM)	0.5 (≈ 1.21 µM)
Cc1ccc(-c2cc(=O)n(CC[C@](C)(C(=O)NO)S(C)(=O)=O)cc2F)cc1 [Example 29, (2R)-4-[5-Fluoro-4-(4-methylphenyl)-2-oxopyridin-1(2H)-yl]-N-hydroxy-2-methyl-2-(methylsulfonyl)butanamide]	0.514	> 64	0.5 (≈ 1.26 µM)	0.5 (≈ 1.26 µM)
C[C@@](CCn1cc(F)c(-c2ccc(OC(F)(F)F)cc2)cc1=O)(C(=O)NO)S(C)(=O)=O [Example 30, (2R)-4-{5-Fluoro-2-oxo-4-[4-(trifluoromethoxy)phenyl]pyridin-1(2H)-yl}-N-hydroxy-2-methyl-2-(methylsulfonyl)butanamide]	0.106	> 64	0.25 (≈ 0.536 µM)	0.5 (≈ 1.07 µM)
C[C@@](CCn1cc(F)c(-c2ccc(F)cc2)cc1=O)(C(=O)NO)S(C)(=O)=O [Example 31, (2R)-4-[5-Fluoro-4-(4-fluorophenyl)-2-oxopyridin-1(2H)-yl]-N-hydroxy-2-methyl-2-(methylsulfonyl)butanamide]	0.213	> 64	1 (≈ 2.5 µM)	0.5 (≈ 1.25 µM)
COc1ccc(-c2ccc(-c3cc(=O)n(CC[C@](C)(C(=O)NO)S(C)(=O)=O)cc3F)cc2)cn1 [Example 32, (2R)-4-{5-Fluoro-4-[4-(6-methoxypyridin-3-yl)phenyl]-2-oxopyridin-1(2H)-yl}-N-hydroxy-2-methyl-2-(methylsulfonyl)butanamide]	0.4	> 64	≤ 0.06	1 (≈ 2.04 µM)
C[C@@](CCn1cc(F)c(-c2ccc(OC(F)F)cc2)cc1=O)(C(=O)NO)S(C)(=O)=O [Example 33, (2R)-4-{4-[4-(Difluoromethoxy)phenyl]-5-fluoro-2-oxopyridin-1(2H)-yl}-N-hydroxy-2-methyl-2-(methylsulfonyl)butanamide]	0.0606	> 64	0.5 (≈ 1.12 µM)	0.5 (≈ 1.12 µM)
COc1ccc(-c2cc(=O)n(CC[C@](C)(C(=O)NO)S(C)(=O)=O)cc2F)cc1C [Example 34, (2R)-4-[5-Fluoro-4-(4-methoxy-3-methylphenyl)-2-oxopyridin-1(2H)-yl]-N-hydroxy-2-methyl-2-(methylsulfonyl)butanamide]	0.834	> 64	0.25 (≈ 0.586 µM)	0.5 (≈ 1.17 µM)
